The results in this text go back to paper PMC9698773, “Design, Synthesis, Molecular Modeling, and Anticancer Evaluation of New VEGFR-2 Inhibitors Based on the Indolin-2-One Scaffold” (Pharmaceuticals, 2022).

Structures are written as SMILES. Several values for one entry are separate records, joined by “and”; a condition that tells them apart may be missing. Identical values can stand only once.

The subject of this experiment is caspase-9. The experiment in a line: Caspase-9 expression assay (quantitative real-time PCR). In kind it is cell-based, human. To be noted: HepG2, 1.13 µM, 24 h; control = 1. Here is the method: The gene expression fold change of caspase-3 and -9 in the HepG2 cells treated with 1.13 µM of compound 17a for 24 h was determined using quantitative real-time PCR analysis.
The expression of caspase-3 and -9 in the liver HepG2 cells treated with 1.13 μM of 17a was determined using quantitative real-time PCR analysis, as presented in the Supplementary Materials.
Pharmaceuticals 2022, 15, x FOR PEER REVIEW 3 of 22
Figure S1. Simple linear regression for the correlation between cytotoxicity against HepG2 cell line […]
Figure S2. Simple linear regression for the correlation between cytotoxicity against MCF‐7 cell line […]
4.2.3. Cell cycle analysis
To determine the role of the synthesized compounds in cell cycle distribution, cell cycle analysis was performed using propidium iodide (PI) staining and flow cytometry analysis for compound 17a. […] The stained cells were measured using a BD FACSCalibur™ Flow Cytometer, and the data were analyzed using Flowing software (version 2.5.1, Turku Centre for Biotech‐ […]
Flow cytometry cell apoptosis analysis was used to investigate the apoptotic effect of the synthesized compounds. […] The stained cells were measured using a BD FACSCalibur™ Flow Cytometer and analyzed using Flowing software. […]
The expression of BAX and Bcl‐2 proteins were determined using Western blot anal‐ ysis. […]
(Quantitative PCR measures a nucleic acid by following its amplification.)

Regarding `O=C1Nc2ccccc2C1=Nc1ccc(C(=O)NNC(=S)Nc2ccccc2)cc1` [Compound 17a, 2-(4-((2-Oxoindolin-3-ylidene)amino)benzoyl)-N-phenylhydrazinecarbothioamide], the “Gene Expression Fold Change (Normalized to β-Actin) Caspases-9” value was 3.7 fold and 3.703 fold.
